Consider five compounds from BindingDB's records for doi:10.1124/mol.51.1.109 (Max-Planck Institute For Experimental Medicine, 1997).

The target in test [1] is T1, P2X purinoceptor 4 (Rattus norvegicus, UniProt P51577).
T1 sequence (P51577 whole entry): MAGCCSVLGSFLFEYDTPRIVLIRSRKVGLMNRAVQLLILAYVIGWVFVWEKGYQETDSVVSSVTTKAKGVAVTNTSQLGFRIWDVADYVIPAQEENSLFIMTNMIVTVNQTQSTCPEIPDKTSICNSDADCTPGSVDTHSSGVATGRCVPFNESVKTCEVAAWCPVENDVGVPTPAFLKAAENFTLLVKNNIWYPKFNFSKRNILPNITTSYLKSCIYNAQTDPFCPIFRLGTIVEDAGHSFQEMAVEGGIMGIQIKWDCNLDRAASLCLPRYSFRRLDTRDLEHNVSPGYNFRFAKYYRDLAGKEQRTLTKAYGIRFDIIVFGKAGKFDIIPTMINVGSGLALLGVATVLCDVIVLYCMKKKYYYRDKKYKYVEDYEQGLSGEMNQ

Test [2] has as its target T2, P2X purinoceptor 4 (Homo sapiens, UniProt Q99571).
T2 sequence (Q99571 whole entry): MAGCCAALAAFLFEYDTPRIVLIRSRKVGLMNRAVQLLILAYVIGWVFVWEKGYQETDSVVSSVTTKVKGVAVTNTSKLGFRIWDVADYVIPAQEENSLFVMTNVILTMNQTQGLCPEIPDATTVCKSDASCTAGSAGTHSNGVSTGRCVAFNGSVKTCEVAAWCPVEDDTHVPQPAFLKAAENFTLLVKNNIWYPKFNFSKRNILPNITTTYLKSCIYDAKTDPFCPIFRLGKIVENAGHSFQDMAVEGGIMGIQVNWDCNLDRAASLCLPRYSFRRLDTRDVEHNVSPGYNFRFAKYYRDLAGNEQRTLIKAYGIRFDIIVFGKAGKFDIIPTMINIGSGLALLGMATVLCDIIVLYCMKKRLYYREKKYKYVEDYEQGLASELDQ

At P2X purinoceptor 4 [1], `Nc1c(S(=O)(=O)O)cc(Nc2ccc(Nc3nc(Cl)nc(Nc4cccc(S(=O)(=O)O)c4)n3)c(S(=O)(=O)O)c2)c2c1C(=O)c1ccccc1C2=O` registered a Ki of 46.2 nM.
Same read-out and setting: next, `Nc1c(S(=O)(=O)O)cc(Nc2ccc(Nc3nc(Cl)nc(Nc4ccccc4S(=O)(=O)O)n3)c(S(=O)(=O)O)c2)c2c1C(=O)c1ccccc1C2=O`: 128 nM; `Cc1nc(/N=N/c2ccc(S(=O)(=O)O)cc2S(=O)(=O)O)c(COP(=O)(O)O)c(C=O)c1O`: 500 nM.
With `O=S1(=O)OC(c2cc(Br)c(O)c(Br)c2)(c2cc(Br)c(O)c(Br)c2)c2ccccc21` [NSC_8272], the Ki at P2X purinoceptor 4 [2] came out at 78.3 nM; on P2X purinoceptor 4 [1], 301 nM.
The matching figures for `Cc1ccc(C(=O)Nc2ccc(S(=O)(=O)O)c3cc(S(=O)(=O)O)cc(S(=O)(=O)O)c23)cc1NC(=O)c1cccc(NC(=O)Nc2cccc(C(=O)Nc3cc(C(=O)Nc4ccc(S(=O)(=O)O)c5cc(S(=O)(=O)O)cc(S(=O)(=O)O)c45)ccc3C)c2)c1` [suramin]: 178 nM and 500 nM.

The term Ki denotes the dissociation constant of the complex between target and ligand, obtained from inhibition or displacement. The low end stands for tighter binding, the high end for weaker binding.
